Test system: C57BL/6 EOPS male mice
Experiment: Effect of metformin and orlistat co-administration on body weight in mice fed with high-fat diet
Format: in vivo
Conditions: p.o. mixed with the diet, orlistat 2 mg/kg, metformin 100 mg/kg, mean±s.e.m.
Experimental: This study was designed to evaluate the effects of a combination of metformin and orlistat on body weight.
Animals: C57BL/6 EOPS male mice, weighing approximately 20 g, were used in the study. C57BL/6 EOPS mice are normal mice which, when subjected to a high-fat diet, become obese and develop hyperglycaemia. They were put by 5 into individual cages in a temperature-, humidity- and light-controlled room (21-23° C.±2° C., 12 h-12 h light-dark cycle). […] After acclimatization, they were randomized into groups of 20, based on body weight.
The experimental groups were:
Group 1: mice fed with standard diet
Group 2: mice fed with high-fat diet, treated with orlistat 2 mg/kg p.o., mixed with the diet
Group 3: mice fed with high-fat diet, treated with metformin 100 mg/kg p.o., mixed with the diet
Group 4: mice fed with high-fat diet, treated with orlistat 2 mg/kg p.o. and metformin 100 mg/kg p.o., mixed with the diet.
Body weight was recorded at the beginning of the study, and after one and three weeks of treatment, respectively.
Statistics: All data are presented as mean±s.e.m. Results were subjected to covariance analysis corrected from baseline followed by Turkey-Kramer adjustment for multiple comparisons. A p<0.1 was considered significant (vs. standard diet).

Row | SMILES | Body weight gain (g) after 1 week | Body weight gain (g) after 3 weeks
1 | CCCCCCCCCCC[C@@H](C[C@@H]1OC(=O)[C@H]1CCCCCC)OC(=O)[C@H](CC(C)C)NC=O (relative stereo) [Orlistat, [2S-[2α(R*),3β]]-N-formyl-L-leucine 1-[(3-hexyl-4-oxo-2-oxetanyl)methyl]dodecyl ester] | +3.2 ± 0.48 g | +5.5 ± 0.63 g
2 | CN(C)C(=N)NC(=N)N [Metformin, 1,1-dimethylbiguanide] | +1.3 ± 0.14 g | +3.5 ± 0.25 g
